What was measured:
[1] = biological target: Lysine-specific histone demethylase 1A (Homo sapiens, UniProt O60341); experiment: Inhibition of human recombinant LSD1 using fluorogenic ADHP as substrate preincubated for 30 mins followed by substrate addition measured after 10 mins by fluorescence assay
A549 = experiment: Antiproliferative activity against human A549 cells overexpressing LSD1 assessed as reduction in cell viability measured after 72 hrs by MTT assay; details: A549, 72 h
U-87 MG = experiment: Antiproliferative activity against human U87MG cells assessed as reduction in cell viability measured after 72 hrs by MTT assay
[2] = biological target: T1, Amine oxidase [flavin-containing] A (Homo sapiens, UniProt P21397); experiment: Inhibition of human recombinant MAO-A expressed in baculovirus infected BTI cells using luciferin derived luminogenic substrate measured after 20 mins by luminescence assay
T1 sequence (P21397 whole entry): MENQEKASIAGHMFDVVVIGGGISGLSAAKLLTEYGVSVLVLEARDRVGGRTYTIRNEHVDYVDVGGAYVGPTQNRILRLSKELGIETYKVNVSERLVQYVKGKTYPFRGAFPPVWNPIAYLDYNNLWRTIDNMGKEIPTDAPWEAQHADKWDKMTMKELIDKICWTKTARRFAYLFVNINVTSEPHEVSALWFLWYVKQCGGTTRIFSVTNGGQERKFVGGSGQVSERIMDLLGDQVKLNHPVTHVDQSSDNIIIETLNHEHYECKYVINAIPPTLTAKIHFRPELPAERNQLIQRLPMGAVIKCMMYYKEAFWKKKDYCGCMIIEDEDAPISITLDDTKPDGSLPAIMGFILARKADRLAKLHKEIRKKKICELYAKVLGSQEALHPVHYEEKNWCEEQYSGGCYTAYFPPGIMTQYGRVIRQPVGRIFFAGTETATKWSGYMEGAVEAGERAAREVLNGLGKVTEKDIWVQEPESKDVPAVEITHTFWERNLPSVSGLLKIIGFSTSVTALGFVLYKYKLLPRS

[3] = biological target: T2, Amine oxidase [flavin-containing] B (Homo sapiens, UniProt P27338); experiment: Inhibition of human recombinant MAO-B expressed in baculovirus infected BTI cells using luciferin derived luminogenic substrate measured after 20 mins by luminescence assay
T2 sequence (P27338 whole entry): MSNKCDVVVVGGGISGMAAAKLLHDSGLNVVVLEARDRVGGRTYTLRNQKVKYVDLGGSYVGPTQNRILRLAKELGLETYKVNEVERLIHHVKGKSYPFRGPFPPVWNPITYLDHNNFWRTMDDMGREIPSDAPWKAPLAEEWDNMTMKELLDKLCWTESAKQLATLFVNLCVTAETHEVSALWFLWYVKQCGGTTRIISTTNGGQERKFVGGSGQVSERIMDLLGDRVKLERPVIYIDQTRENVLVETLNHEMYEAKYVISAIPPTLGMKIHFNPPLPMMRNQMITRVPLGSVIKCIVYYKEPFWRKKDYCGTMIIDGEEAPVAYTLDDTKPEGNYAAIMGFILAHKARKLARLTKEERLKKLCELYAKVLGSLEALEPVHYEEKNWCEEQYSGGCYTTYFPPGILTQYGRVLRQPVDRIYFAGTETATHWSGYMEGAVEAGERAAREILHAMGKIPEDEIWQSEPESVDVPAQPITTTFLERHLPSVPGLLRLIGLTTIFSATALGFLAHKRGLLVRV

| Structure (SMILES) | IC50 [1] | IC50 (A549) | IC50 (U-87 MG) | IC50 [2] | IC50 [3] |
| --- | --- | --- | --- | --- | --- |
| COc1ccc(/C=C/C(=O)Nc2cccc(OCC3CCNCC3)c2)cc1OC | > 50 µM | – | – | – | – |
| COc1cc(/C=C/C(=O)Nc2cccc(OCC3CCNCC3)c2)cc(OC)c1OC | > 50 µM | – | – | – | – |
| COc1cc(/C=C/C(=O)Nc2cccc(OCC3CCNCC3)c2)ccc1O | – | 24.5 µM | 31 µM | – | – |
| COc1cc(/C=C/C(=O)Nc2ccc(CC(=O)NN)cc2)ccc1O | – | 30.3 µM | 49.3 µM | – | – |
| COc1cc(/C=C/C(=O)Nc2ccc(C(=O)NO)cc2)ccc1O | – | 32.5 µM | > 50 µM | – | – |
| COc1cc(/C=C/C(=O)Nc2ccc(NC(=N)N)cc2)ccc1O | – | > 50 µM | > 50 µM | – | – |
| COc1cc(/C=C/C(=O)Nc2cccc(COc3ccc(OC4CCNCC4)cc3)c2)ccc1O | – | 28.5 µM | > 50 µM | – | – |
| O=C(/C=C/c1ccc(O)cc1)Nc1cccc(OCC2CCNCC2)c1 | – | 9.33 µM | > 50 µM | > 50 µM | > 50 µM |
| N#Cc1ccc(/C=C/C(=O)Nc2cccc(OCC3CCNCC3)c2)cc1 | > 50 µM | – | – | – | – |
| COc1cc(/C=C/C(=O)Nc2ccc(N)cc2)ccc1O | – | > 50 µM | > 50 µM | – | – |
| COC(=O)Cc1ccc(NC(=O)/C=C/c2ccc(OC(C)=O)c(OC)c2)cc1 | > 50 µM | – | – | – | – |
| Cc1ccc(-c2cc(/C=C/C(=O)Nc3cccc(OCC4CCNCC4)c3)ccc2O)cc1 | > 50 µM | – | – | – | – |
| O=C(/C=C/c1ccc(F)cc1)Nc1cccc(OCC2CCNCC2)c1 | > 50 µM | – | – | – | – |
| COc1cc(/C=C/C(=O)Nc2ccccc2COc2ccc(OC3CCNCC3)cc2)ccc1O | – | 4.42 µM | 14.2 µM | > 50 µM | > 50 µM |
| O=C(/C=C/c1cccc(C(F)(F)F)c1)Nc1cccc(OCC2CCNCC2)c1 | > 50 µM | – | – | – | – |
| COc1cc(/C=C/C(=O)CC(=O)/C=C/c2ccc(O)c(OC)c2)ccc1O [CURCUMIN] | 9.6 µM | – | – | – | – |

From ChEMBL document CHEMBL4311998, “Design, synthesis and biological evaluation of curcumin analogues as novel LSD1 inhibitors” (Bioorg Med Chem Lett, 2019)
